Laboratory results reported in patent publication US9447084B2, “Antiparisitic and pesticidal isoxazoline compounds” (MERIAL LIMITED, priority 2013, dated 2016).

test system: Ctenocephalides felis; test: Efficacy of compounds against fleas following ingestion (membrane feeding on treated bovine blood); assay type: in vivo; conditions: 10 adult Ctenocephalides felis feeding on treated bovine blood; assessment at 72 hours after application vs untreated controls
Protocol: A cylindrical test container was filled with 10 adult Ctenocephalides felis. A cylindrical well was closed on one end with a self-sealing flexible film and placed on top of the test container in such a position that the fleas could pierce the film and feed on the contents of the cylinder. The test compound solution was then pipetted into bovine blood and added to the well. The container part with the Ctenocephalides felis was held at 20-22° C. and 40-60% relative humidity while the well part containing the treated blood was held at 37° C. and 40-60% relative humidity. Assessment was performed at 72 hours after application in comparison with untreated controls. […] In this regard, the efficacy of the compounds of the invention having at least one carbonyl group in Ring D against fleas was compared with the efficacy of corresponding compounds that are not substituted with a carbonyl group in Ring D using the method of Example 19.

Row | SMILES | EC50 [µg/mL]
1 | CCN1CCN(C(=O)c2ccc(C3=NOC(c4cc(Cl)cc(Cl)c4)(C(F)(F)F)C3)cc2C)C1=O (stereo not drawn) [Compound 54] | ≤ 10
2 | Cc1cc(C2=NOC(c3cc(Cl)cc(Cl)c3)(C(F)(F)F)C2)ccc1C(=O)NN1CCN(CC(F)(F)F)C1=O (stereo not drawn) [Compound 67, 4-[5-(3,5-dichlorophenyl)-5-(trifluoromethyl)-4,5-dihydro-1,2-oxazol-3-yl]-2-methyl-N-[2-oxo-3-(2,2,2-trifluoroethyl)imidazolidin-1-yl]benzamide] | ≤ 1
3 | Cc1cc(C2=NOC(c3cc(Cl)cc(C(F)(F)F)c3)(C(F)(F)F)C2)ccc1C(=O)NN1CCCN(CC(F)(F)F)C1=O (stereo not drawn) [Compound 70] | ≤ 1
4 | Cc1cc(C2=NOC(c3cc(Cl)cc(C(F)(F)F)c3)(C(F)(F)F)C2)ccc1C(=O)N1CC(=O)N(CC(F)(F)F)C1 (stereo not drawn) [Compound 71, 1-[(4-[5-[3-chloro-5-(trifluoromethyl)phenyl]-5-(trifluoromethyl)-4,5-dihydro-1,2-oxazol-3-yl]-2-methylphenyl)carbonyl]-3-(2,2,2-trifluoroethyl)imidazolidin-4-one] | ≤ 0.1
5 | Cc1cc(C2=NOC(c3cc(Cl)cc(C(F)(F)F)c3)(C(F)(F)F)C2)ccc1C(=O)N1CC(=O)N(CCC(F)(F)F)C1 (stereo not drawn) [Compound 80, 1-[(4-[5-[3-chloro-5-(trifluoromethyl)phenyl]-5-(trifluoromethyl)-4,5-dihydro-1,2-oxazol-3-yl]-2-methylphenyl)carbonyl]-3-(3,3,3-trifluoropropyl)imidazolidin-4-one] | ≤ 0.1
6 | O=C(NN1CCCN(CC(F)(F)F)C1=O)c1ccc(C2=NOC(c3cc(C(F)(F)F)cc(C(F)(F)F)c3)(C(F)(F)F)C2)cc1C(F)(F)F (stereo not drawn) [Compound 90, 4-[5-[3,5-bis(trifluoromethyl)phenyl]-5-(trifluoromethyl)-4,5-dihydro-1,2-oxazol-3-yl]-N-[2-oxo-3-(2,2,2-trifluoroethyl)-1,3-diazinan-1-yl]-2-(trifluoromethyl)benzamide] | ≤ 1
7 | O=C(NN1CCCN(CC(F)(F)F)C1=O)c1ccc(C2=NOC(c3cc(Cl)cc(Cl)c3)(C(F)(F)F)C2)cc1C(F)(F)F (stereo not drawn) [Compound 91, 4-[5-(3,5-dichlorophenyl)-5-(trifluoromethyl)-4,5-dihydro-1,2-oxazol-3-yl]-N-[2-oxo-3-(2,2,2-trifluoroethyl)-1,3-diazinan-1-yl]-2-(trifluoromethyl)benzamide] | ≤ 1
8 | O=C(c1ccc(C2=NOC(c3cc(Cl)cc(Cl)c3)(C(F)(F)F)C2)cc1C(F)(F)F)N1CC(=O)N(CC(F)(F)F)C(=O)C1 (stereo not drawn) [Compound 92, 4-([4-[5-(3,5-dichlorophenyl)-5-(trifluoromethyl)-4,5-dihydro-1,2-oxazol-3-yl]-2-(trifluoromethyl)phenyl]carbonyl)-1-(2,2,2-trifluoroethyl)piperazine-2,6-dione] | ≤ 10
9 | O=C1CN(C(=O)c2ccc(C3=NOC(c4cc(Cl)cc(Cl)c4)(C(F)(F)F)C3)cc2C(F)(F)F)CN1CC(F)(F)F (stereo not drawn) [Compound 93, 1-([4-[5-(3,5-dichlorophenyl)-5-(trifluoromethyl)-4,5-dihydro-1,2-oxazol-3-yl]-2-(trifluoromethyl)phenyl]carbonyl)-3-(2,2,2-trifluoroethyl)imidazolidin-4-one] | ≤ 1
10 | CCCN1C(=O)CN(C(=O)c2ccc(C3=NOC(c4cc(Cl)cc(C(F)(F)F)c4)(C(F)(F)F)C3)cc2C(F)(F)F)CC1=O (stereo not drawn) [Compound 95, 4-[(4-[5-[3-chloro-5-(trifluoromethyl)phenyl]-5-(trifluoromethyl)-4,5-dihydro-1,2-oxazol-3-yl]-2-(trifluoromethyl)phenyl)carbonyl]-1-propylpiperazine-2,6-dione] | ≤ 10
11 | O=C1CN(C(=O)c2ccc(C3=NOC(c4cc(Cl)cc(C(F)(F)F)c4)(C(F)(F)F)C3)cc2C(F)(F)F)CN1CC(F)(F)F (stereo not drawn) [Compound 96, 1-[(4-[5-[3-chloro-5-(trifluoromethyl)phenyl]-5-(trifluoromethyl)-4,5-dihydro-1,2-oxazol-3-yl]-2-(trifluoromethyl)phenyl)carbonyl]-3-(2,2,2-trifluoroethyl)imidazolidin-4-one] | ≤ 1
12 | O=C(NN1CCCN(CC(F)(F)F)C1=O)c1ccc(C2=NOC(c3cc(Cl)cc(C(F)(F)F)c3)(C(F)(F)F)C2)cc1C(F)(F)F (stereo not drawn) [Compound 97, 4-[5-[3-chloro-5-(trifluoromethyl)phenyl]-5-(trifluoromethyl)-4,5-dihydro-1,2-oxazol-3-yl]-N-[2-oxo-3-(2,2,2-trifluoroethyl)-1,3-diazinan-1-yl]-2-(trifluoromethyl)benzamide] | ≤ 1
13 | O=C1CN(C(=O)c2ccc(C3=NOC(c4cc(Cl)cc(C(F)(F)F)c4)(C(F)(F)F)C3)cc2C(F)(F)F)CN1CCC(F)(F)F (stereo not drawn) [Compound 98, 1-[(4-[5-[3-chloro-5-(trifluoromethyl)phenyl]-5-(trifluoromethyl)-4,5-dihydro-1,2-oxazol-3-yl]-2-(trifluoromethyl)phenyl)carbonyl]-3-(3,3,3-trifluoropropyl)imidazolidin-4-one] | ≤ 1
14 | O=C1CN(C(=O)c2ccc(C3=NOC(c4cc(Cl)cc(C(F)(F)F)c4)(C(F)(F)F)C3)cc2CC(F)(F)F)CN1CCC(F)(F)F (stereo not drawn) [Compound 99, 1-[(4-[5-[3-chloro-5-(trifluoromethyl)phenyl]-5-(trifluoromethyl)-4,5-dihydro-1,2-oxazol-3-yl]-2-(2,2,2-trifluoroethyl)phenyl)carbonyl]-3-(3,3,3-trifluoropropyl)imidazolidin-4-one] | ≤ 1
15 | Cc1cc(C2=NOC(c3cc(Cl)cc(C(F)(F)F)c3)(C(F)(F)F)C2)ccc1C(=O)N1CCN(CCC(F)(F)F)C1 (stereo not drawn) [Compound 100] | ≤ 10
16 | O=C1CN(C(=O)c2ccc(C3=NOC(c4cc(Cl)cc(C(F)(F)F)c4)(C(F)(F)F)C3)c3ccccc23)CN1CCC(F)(F)F (stereo not drawn) [Compound 112, 1-[(4-[5-[3-chloro-5-(trifluoromethyl)phenyl]-5-(trifluoromethyl)-4,5-dihydro-1,2-oxazol-3-yl]naphthalen-1-yl)carbonyl]-3-(3,3,3-trifluoropropyl)imidazolidin-4-one] | ≤ 0.1
17 | Cc1cc(C2=NOC(c3cc(Cl)cc(C(F)(F)F)c3)(C(F)(F)F)C2)ccc1C(=O)N1CC(=O)N(CS(C)(=O)=O)C1 (stereo not drawn) [Compound 114, 1-[(4-[5-[3-Chloro-5-(trifluoromethyl)phenyl]-5-(trifluoromethyl)-4,5-dihydro-1,2-oxazol-3-yl]-2-methylphenyl)carbonyl]-3-(methanesulfonylmethyl)imidazolidin-4-one] | ≤ 10
18 | Cc1cc(C2=NOC(c3cc(Cl)c(F)c(Cl)c3)(C(F)(F)F)C2)ccc1C(=O)N1CC(=O)N(CCC(F)(F)F)C1 (stereo not drawn) [Compound 115, 1-([4-[5-(3,5-dichloro-4-fluorophenyl)-5-(trifluoromethyl)-4,5-dihydro-1,2-oxazol-3-yl]-2-methylphenyl]carbonyl)-3-(3,3,3-trifluoropropyl)imidazolidin-4-one] | ≤ 0.1

same assay, conditions: efficacy against fleas, method of Example 19; compounds with vs without carbonyl group in Ring D

Row | SMILES | EC50 (ppm)
19 | Cc1cc(C2=NOC(c3cc(Cl)cc(Cl)c3)(C(F)(F)F)C2)ccc1C(=O)N1CC(=O)N(CC(F)(F)F)C(=O)C1 (stereo not drawn) | <0.1 ppm
20 | Cc1cc(C2=NOC(c3cc(Cl)cc(Cl)c3)(C(F)(F)F)C2)ccc1C(=O)N1CC(=O)NC(=O)C1 (stereo not drawn) | <0.1 ppm
21 | Cc1cc(C2=NOC(c3cc(Cl)cc(C(F)(F)F)c3)(C(F)(F)F)C2)ccc1C(=O)N1CC(=O)N(CCC(F)(F)F)C1 (stereo not drawn) [drawing 155] | <0.1 ppm
22 | Cc1cc(C2=NOC(c3cc(Cl)cc(C(F)(F)F)c3)(C(F)(F)F)C2)ccc1C(=O)N1CCN(CCC(F)(F)F)C1 (stereo not drawn) [drawing 156, reference compound] | 1-10 ppm
23 | Cc1cc(C2=NOC(c3cc(Cl)cc(Cl)c3)(C(F)(F)F)C2)ccc1C(=O)N1CCN(CC(F)(F)F)CC1 (stereo not drawn) [reference compound] | 10-20 ppm
24 | Cc1cc(C2=NOC(c3cc(Cl)cc(Cl)c3)(C(F)(F)F)C2)ccc1C(=O)N1CCNCC1 (stereo not drawn) [reference compound] | 1-10 ppm
